Measured values reported in paper PMC11642016 (International Journal of Molecular Sciences, 2024).
Where “and” joins values, the source holds several entries; their conditions need not be identical. Equal entries are not always repeated. Where two headings read alike, the source gives them in different places.

Key:
[1] = system: PANC-1, Fadu, A2058 and EBC-1 cell lines; set-up: method as in PMID 35455465; conditions: 10 µM; cited from earlier work
[2] = system: non-tumorous primary fibroblast cells; assay: CellTiter-Glo luminescent cell viability assay, primary fibroblasts; conditions: for Primer fibroblast Cell viability (% of controll): 72 h, dose–response, individual replicates
[3] = system: Fadu cells; assay: CellTiter-Glo luminescent cell viability assay, Fadu; conditions: for Fadu Cell viability (% of controll) / Cell Viability (% of Control) 2.8 µM / Cell Viability (% of Control) 8.3 µM / Cell Viability (% of Control) 25 µM: 72 h; for Fadu Cell viability (% of controll): dose–response, individual replicates; for Cell Viability (% of Control) 2.8 µM / Cell Viability (% of Control) 8.3 µM / Cell Viability (% of Control) 25 µM: Fadu, mean ± SD, n = 2
[4] = system: PANC-1 and A2058 cells; set-up: method as in PMID 35455465; conditions: 24 h exposure time; cited from earlier work
[5] = system: PANC-1 cells; assay: CellTiter-Glo luminescent cell viability assay, PANC-1; conditions: for PANC-1 Cell viability (% of controll) / Cell Viability (% of Control) 2.8 µM / Cell Viability (% of Control) 8.3 µM / Cell Viability (% of Control) 25 µM: 72 h; for PANC-1 Cell viability (% of controll): dose–response, individual replicates; for Cell Viability (% of Control) 2.8 µM / Cell Viability (% of Control) 8.3 µM / Cell Viability (% of Control) 25 µM: PANC-1, mean ± SD, n = 2

For `NCC#Cc1ccc(CN2C(=O)C3=C(CCN(Cc4ccc(-n5cc(-[c-]6cccc6)nn5)cc4)C3)N3CCN=C23)cc1.[Fe+2].c1cc[cH-]c1` [I/A, reference compound], the “viable cells after treatment in colony formation assays” value [1] is given as “no viable cells could be observed”, the “Primer fibroblast Cell viability (% of controll)” value ([2]; 0.7 μM) is given as 96 % of controll and 98 % of controll and 99 % of controll and the “Primer fibroblast Cell viability (% of controll)” value ([2]; 1 μM) is given as 100 % of controll and 103 % of controll and 99 % of controll. For the same compound, the “Primer fibroblast Cell viability (% of controll)” value ([2]; 1.5 μM) was 102 % of controll and 105 % of controll and 104 % of controll, the “Primer fibroblast Cell viability (% of controll)” value ([2]; 2.3 μM) was 102 % of controll (2×) and 104 % of controll and the “Primer fibroblast Cell viability (% of controll)” value ([2]; 3.4 μM) was 104 % of controll (2×) and 107 % of controll. For the same compound, the “Primer fibroblast Cell viability (% of controll)” value ([2]; 5.1 μM) was 107 % of controll and 109 % of controll and 98 % of controll, the “Primer fibroblast Cell viability (% of controll)” value ([2]; 7.7 μM) was 115 % of controll and 118 % of controll and 109 % of controll and the “Primer fibroblast Cell viability (% of controll)” value ([2]; 17.3 μM) was 8 % of controll and 42 % of controll and 24 % of controll. For the same compound, the “Primer fibroblast Cell viability (% of controll)” value ([2]; 26 μM) was 0 % of controll, the IC50 ([2]; read-out: IC50 Value ± SEM Primary Fibroblast, 72 h treatment, best-fit values, n = 3) was 14.9 ± 0.46 µM and the IC50 ([2]; read-out: Primary fibroblast IC50 values, Mean, mean of independently fitted replicate IC50 values (Supplement S.6), ONC201 value mathematically estimated from inflection point) was 15.2 µM. For the same compound, the IC50 ([2]; read-out: Primary fibroblast IC50 values, individual replicates n1-n3, IC50 independently determined for each replicate (Supplement S.6), ONC201 value mathematically estimated from inflection point, viability stayed above 50%) was 13.9 µM and 14.9 µM and 16.8 µM, the “Fadu Cell viability (% of controll)” value ([3]; 0.7 μM) was 111 % of controll and 115 % of controll and 108 % of controll and the “Fadu Cell viability (% of controll)” value ([3]; 1 μM) was 110 % of controll and 112 % of controll and 109 % of controll. The “Fadu Cell viability (% of controll)” value ([3]; 1.5 μM) was 107 % of controll and 108 % of controll and 109 % of controll, the “Fadu Cell viability (% of controll)” value ([3]; 2.3 μM) was 109 % of controll (2×) and 104 % of controll and the “Fadu Cell viability (% of controll)” value ([3]; 3.4 μM) was 104 % of controll and 109 % of controll and 110 % of controll. The “Fadu Cell viability (% of controll)” value ([3]; 5.1 μM) was 105 % of controll and 106 % of controll and 102 % of controll, the “Fadu Cell viability (% of controll)” value ([3]; 7.7 μM) was 99 % of controll and 86 % of controll and 82 % of controll and the “Fadu Cell viability (% of controll)” value ([3]; 17.3 μM) was 5 % of controll and 0 % of controll and 1 % of controll. For the same compound, the “Fadu Cell viability (% of controll)” value ([3]; 26 μM) was 0 % of controll, the “Cell Viability (% of Control) 2.8 µM” value ([3]; first-set screening) was 105 ± 9 % of Control and the “Cell Viability (% of Control) 2.8 µM” value ([3]; second-set screening) was 105 ± 9 % of Control. The “Cell Viability (% of Control) 8.3 µM” value ([3]; first-set screening) was 66 ± 24 % of Control, the “Cell Viability (% of Control) 8.3 µM” value ([3]; second-set screening) was 66 ± 24 % of Control and the “Cell Viability (% of Control) 25 µM” value ([3]; first-set screening) was 0 ± 0 % of Control. The “Cell Viability (% of Control) 25 µM” value ([3]; second-set screening) was 0 ± 0 % of Control, the “Selectivity Index (SI) Fibroblast/Fadu” value ([3]; ratio of mean best-fit IC50 for primary fibroblasts and best-fit IC50 for Fadu) was 1.5 and the IC50 ([3]; read-out: Fadu IC50 values, Mean, mean of independently fitted replicate IC50 values (Supplement S.6)) was 10 µM. For the same compound, the IC50 ([3]; read-out: Fadu IC50 values, individual replicates n1-n3, IC50 independently determined for each replicate measurement (Supplement S.6)) was 11.2 µM and 9.27 µM and 9.61 µM, the IC50 ([3]; read-out: IC50 Value ± SEM Fadu, 72 h treatment, best-fit values, n = 3) was 10 ± 0.23 µM and the apoptosis induction [4] was “far more efficient in apoptosis induction than ONC201”. For the same compound, the “PANC-1 Cell viability (% of controll)” value ([5]; 0.7 μM) was 106 % of controll and 102 % of controll and 107 % of controll, the “PANC-1 Cell viability (% of controll)” value ([5]; 1 μM) was 109 % of controll and 116 % of controll and 115 % of controll and the “PANC-1 Cell viability (% of controll)” value ([5]; 1.5 μM) was 110 % of controll and 105 % of controll and 115 % of controll. For the same compound, the “PANC-1 Cell viability (% of controll)” value ([5]; 2.3 μM) was 109 % of controll and 107 % of controll and 111 % of controll, the “PANC-1 Cell viability (% of controll)” value ([5]; 3.4 μM) was 108 % of controll and 109 % of controll and 112 % of controll and the “PANC-1 Cell viability (% of controll)” value ([5]; 5.1 μM) was 99 % of controll and 97 % of controll and 119 % of controll. The “PANC-1 Cell viability (% of controll)” value ([5]; 7.7 μM) was 93 % of controll and 79 % of controll and 109 % of controll, the “PANC-1 Cell viability (% of controll)” value ([5]; 17.3 μM) was 0 % of controll and 2 % of controll and 1 % of controll and the “PANC-1 Cell viability (% of controll)” value ([5]; 26 μM) was 0 % of controll. For the same compound, the “Cell Viability (% of Control) 2.8 µM” value ([5]; first-set screening) was 108 ± 4 % of Control, the “Cell Viability (% of Control) 2.8 µM” value ([5]; second-set screening) was 108 ± 4 % of Control and the “Cell Viability (% of Control) 8.3 µM” value ([5]; first-set screening) was 39 ± 7 % of Control. For the same compound, the “Cell Viability (% of Control) 8.3 µM” value ([5]; second-set screening) was 39 ± 7 % of Control, the “Cell Viability (% of Control) 25 µM” value ([5]; first-set screening) was 0 ± 0 % of Control and the “Cell Viability (% of Control) 25 µM” value ([5]; second-set screening) was 0 ± 0 % of Control. For the same compound, the “Selectivity Index (SI) Fibroblast/PANC-1” value ([5]; ratio of mean best-fit IC50 for primary fibroblasts and best-fit IC50 for PANC-1) was 1.4, the IC50 ([5]; read-out: IC50 Value ± SEM PANC-1, 72 h treatment, best-fit values, n = 3) was 10.7 ± 0.31 µM and the IC50 ([5]; read-out: PANC-1 IC50 values, Mean, mean of independently fitted replicate IC50 values (Supplement S.6)) was 10.6 µM. The IC50 ([5]; read-out: PANC-1 IC50 values, individual replicates n1-n3, IC50 independently determined for each replicate measurement (Supplement S.6)) was 11.5 µM and 10.3 µM and 10.1 µM.
